Assay results from DBAASP.
≈ marks a conversion by molar mass, not a printed value.

Legend:
Test in all cases: ≥ marks a high value that may be exact or a test limit, other limits are often not marked, values filed in µg/mL are converted to µM
Staphylococcus aureus = test system: Staphylococcus aureus
Bacillus subtilis 168 = test system: Bacillus subtilis 168
Escherichia coli B = test system: Escherichia coli B
Pseudomonas aeruginosa = test system: Pseudomonas aeruginosa
[1] = test system: Escherichia coli KCTC 1682
[2] = test system: Pseudomonas aeruginosa KCTC 1637
[3] = test system: Salmonella typhimurium KCTC 1926
[4] = test system: Staphylococcus aureus KCTC 1621
[5] = test system: Staphylococcus epidermidis KCTC 1917
[6] = test system: Bacillus subtilis KCTC 3068
Bacillus subtilis = test system: Bacillus subtilis
Escherichia coli = test system: Escherichia coli

MIC (Staphylococcus aureus) [µM] | MIC (Bacillus subtilis 168) [µM] | MIC (Escherichia coli B) [µM] | MIC (Pseudomonas aeruginosa) [µM] | MIC [1] [µM] | MIC [2] [µM] | MIC [3] [µM] | MIC [4] [µM] | MIC [5] [µM] | MIC [6] [µM] | MIC (Bacillus subtilis) [µM] | MIC (Escherichia coli) [µM] | SMILES
4.3 (≈ 8.6 µg/mL) | 1.3 (≈ 2.6 µg/mL) | 1.8 (≈ 3.6 µg/mL) | 14.4 (≈ 28.8 µg/mL) |  |  |  |  |  |  |  |  | CC[C@H](C)[C@H](NC(=O)[C@H](CO)NC(=O)[C@H](CC(C)C)NC(=O)[C@H](Cc1ccccc1)NC(=O)CN)C(=O)N[C@@H](CC(C)C)C(=O)N[C@@H](CCCCN)C(=O)N[C@@H](CCCCN)C(=O)N[C@H](C(=O)N[C@@H](CC(C)C)C(=O)NCC(=O)N[C@@H](CCCCN)C(=O)N[C@H](C(=O)N[C@@H](CCSC)C(=O)N[C@@H](C)C(=O)N[C@@H](Cc1cnc[nH]1)C(=O)N[C@@H](CCSC)C(=O)N[C@@H](CCCCN)C(N)=O)C(C)C)C(C)C [GFLSILKKVLGKVMAHMK]
28.3 (≈ 43.1 µg/mL) | 1.1 (≈ 1.68 µg/mL) | 3 (≈ 4.57 µg/mL) | 25 (≈ 38.1 µg/mL) |  |  |  |  |  |  |  |  | CC[C@H](C)[C@H](NC(=O)[C@H](Cc1cnc[nH]1)NC(=O)[C@H](CCCCN)NC(=O)[C@H](CC(C)C)NC(=O)[C@H](CC(C)C)NC(=O)[C@H](CO)NC(=O)[C@H](CCSC)NC(=O)[C@H](Cc1c[nH]c2ccccc12)NC(=O)[C@H](CCCCN)NC(=O)[C@@H](N)CCCCN)C(=O)N[C@@H](CC(C)C)C(=O)N[C@@H](CCCCN)C(N)=O [KKWMSLLKHILK]
13.8 (≈ 28.6 µg/mL) | 1.4 (≈ 2.9 µg/mL) | 1.8 (≈ 3.73 µg/mL) | 25.3 (≈ 52.4 µg/mL) |  |  |  |  |  |  |  |  | CC[C@H](C)[C@H](NC(=O)[C@H](CO)NC(=O)[C@H](CC(C)C)NC(=O)[C@H](Cc1ccccc1)NC(=O)CN)C(=O)N[C@@H](CC(C)C)C(=O)N[C@@H](CCCCN)C(=O)N[C@@H](CCCCN)C(=O)N[C@H](C(=O)N[C@@H](CC(C)C)C(=O)N[C@@H](CCCCN)C(=O)N[C@@H](CCCCN)C(=O)N[C@H](C(=O)N[C@@H](CCSC)C(=O)N[C@@H](C)C(=O)N[C@@H](Cc1cnc[nH]1)C(=O)N[C@@H](CCSC)C(=O)N[C@@H](CCCCN)C(N)=O)C(C)C)C(C)C [GFLSILKKVLKKVMAHMK]
 |  |  |  | 8 (≈ 19 µg/mL) | 8 (≈ 19 µg/mL) | 4 (≈ 9.48 µg/mL) | 8 (≈ 19 µg/mL) | 4 (≈ 9.48 µg/mL) | 4 (≈ 9.48 µg/mL) |  |  | CC[C@H](C)[C@H](N)C(=O)NCC(=O)N[C@@H](CCCCN)C(=O)N[C@@H](CC(C)C)C(=O)N[C@@H](Cc1ccccc1)C(=O)N[C@@H](CCCCN)C(=O)N[C@@H](CCCN=C(N)N)C(=O)N[C@H](C(=O)N[C@H](C(=O)N[C@@H](CCC(N)=O)C(=O)N[C@@H](CCCN=C(N)N)C(=O)N[C@H](C(=O)N[C@@H](CCCCN)C(=O)N[C@@H](CCCCN)C(=O)N[C@@H](Cc1ccccc1)C(=O)N[C@@H](CC(C)C)C(=O)N[C@@H](CCCN=C(N)N)C(=O)N[C@@H](CC(N)=O)C(=O)N[C@@H](CC(C)C)C(=O)O)[C@@H](C)CC)C(C)C)[C@@H](C)CC [IGKLFKRIVQRIKKFLRNL]
> 100 | 22.5 (≈ 25.7 µg/mL) | ≥ 100 | > 100 |  |  |  |  |  |  |  |  | CC[C@H](C)[C@H](NC(=O)[C@H](CCCCN)NC(=O)[C@H](CO)NC(=O)[C@H](Cc1c[nH]c2ccccc12)NC(=O)[C@H](CCSC)NC(=O)CN)C(=O)N[C@@H](CC(C)C)C(=O)NCC(=O)N[C@@H](Cc1cnc[nH]1)C(=O)N[C@@H](CC(C)C)C(N)=O [GMWSKILGHL]
 |  |  |  | 7.97 (≈ 12.5 µg/mL) | 3.99 (≈ 6.25 µg/mL) | 2 (≈ 3.13 µg/mL) | 7.97 (≈ 12.5 µg/mL) | 3.99 (≈ 6.25 µg/mL) | 7.97 (≈ 12.5 µg/mL) |  |  | CC[C@H](C)[C@H](NC(=O)[C@H](CCCCN)NC(=O)[C@H](CC(C)C)NC(=O)[C@H](CC(C)C)NC(=O)[C@@H](N)CCCCN)C(=O)N[C@@H](Cc1c[nH]c2ccccc12)C(=O)N[C@@H](Cc1c[nH]c2ccccc12)C(=O)N[C@H](C(=O)N[C@@H](CCCCN)C(=O)N[C@H](C(=O)N[C@@H](CC(C)C)C(=O)N[C@@H](CCCCN)C(N)=O)C(C)C)[C@@H](C)CC [KLLKIWWIKVLK]
2.2 (≈ 3.91 µg/mL) | 0.6 (≈ 1.07 µg/mL) | 1.4 (≈ 2.49 µg/mL) | 27.1 (≈ 48.2 µg/mL) |  |  |  |  |  |  |  |  | CC[C@H](C)[C@H](NC(=O)[C@H](CCCCN)NC(=O)[C@H](CCCCN)NC(=O)[C@H](Cc1c[nH]c2ccccc12)NC(=O)[C@H](CC(N)=O)NC(=O)[C@@H](N)C(C)C)C(=O)N[C@@H](CC(C)C)C(=O)N[C@@H](C)C(=O)N[C@@H](CCCCN)C(=O)N[C@H](C(=O)N[C@H](C(=O)N[C@@H](CCCCN)C(=O)N[C@H](C(=O)N[C@H](C(=O)N[C@@H](CCCCN)C(N)=O)C(C)C)C(C)C)[C@@H](C)CC)[C@@H](C)CC [VNWKKILAKIIKVVK]
 |  |  |  | 8 (≈ 19 µg/mL) | 8 (≈ 19 µg/mL) | 2 (≈ 4.75 µg/mL) | 4 (≈ 9.49 µg/mL) | 2 (≈ 4.75 µg/mL) | 2 (≈ 4.75 µg/mL) |  |  | CC[C@H](C)[C@H](N)C(=O)NCC(=O)N[C@@H](CCCCN)C(=O)N[C@@H](CCCCN)C(=O)N[C@@H](Cc1ccccc1)C(=O)N[C@@H](CCCCN)C(=O)N[C@@H](CCCN=C(N)N)C(=O)N[C@H](C(=O)N[C@H](C(=O)N[C@@H](CCC(N)=O)C(=O)N[C@@H](CCCN=C(N)N)C(=O)N[C@H](C(=O)N[C@@H](CCCCN)C(=O)N[C@@H](CC(=O)O)C(=O)N[C@@H](Cc1ccccc1)C(=O)N[C@@H](CC(C)C)C(=O)N[C@@H](CCCN=C(N)N)C(=O)N[C@@H](CC(N)=O)C(=O)N[C@@H](CC(C)C)C(=O)O)[C@@H](C)CC)C(C)C)[C@@H](C)CC [IGKKFKRIVQRIKDFLRNL]
 |  |  |  | 5.08 (≈ 10 µg/mL) | 5.08 (≈ 10 µg/mL) | 5.08 (≈ 10 µg/mL) | 2.54 (≈ 5 µg/mL) | 5.08 (≈ 10 µg/mL) | 2.54 (≈ 5 µg/mL) |  |  | CC[C@H](C)[C@H](N)C(=O)N[C@@H](CC(C)C)C(=O)N1CCC[C@H]1C(=O)N[C@@H](Cc1c[nH]c2ccccc12)C(=O)N[C@@H](CCCCN)C(=O)N[C@@H](Cc1c[nH]c2ccccc12)C(=O)N[C@@H](CCCCN)C(=O)N[C@@H](Cc1c[nH]c2ccccc12)C(=O)N[C@@H](Cc1c[nH]c2ccccc12)C(=O)N[C@@H](CCCCN)C(=O)N[C@@H](Cc1c[nH]c2ccccc12)C(=O)N[C@@H](CCCN=C(N)N)C(=O)N[C@@H](CCCN=C(N)N)C(N)=O [ILPWKWKWWKWRR]
 |  |  |  | 2 (≈ 5.17 µg/mL) | 4 (≈ 10.3 µg/mL) | 1 (≈ 2.59 µg/mL) | 2 (≈ 5.17 µg/mL) | 1 (≈ 2.59 µg/mL) | 2 (≈ 5.17 µg/mL) |  |  | CC[C@H](C)[C@H](NC(=O)[C@H](C)NC(=O)[C@H](CCCN=C(N)N)NC(=O)[C@H](Cc1ccccc1)NC(=O)[C@@H](NC(=O)[C@H](Cc1cnc[nH]1)NC(=O)[C@H](Cc1cnc[nH]1)NC(=O)[C@H](Cc1ccccc1)NC(=O)[C@@H](N)Cc1ccccc1)[C@@H](C)CC)C(=O)N[C@H](C(=O)N[C@@H](Cc1cnc[nH]1)C(=O)N[C@H](C(=O)NCC(=O)N[C@@H](CCCCN)C(=O)N[C@H](C(=O)N[C@H](C(=O)N[C@@H](Cc1cnc[nH]1)C(=O)N[C@@H](CCCN=C(N)N)C(=O)N[C@@H](CC(C)C)C(=O)N[C@H](C(=O)N[C@H](C(=O)NCC(=O)O)[C@@H](C)O)C(C)C)[C@@H](C)CC)[C@@H](C)O)C(C)C)C(C)C [FFHHIFRAIVHVGKTIHRLVTG]
19.7 (≈ 34.2 µg/mL) | 0.7 (≈ 1.22 µg/mL) | 1.1 (≈ 1.91 µg/mL) | 23.3 (≈ 40.5 µg/mL) |  |  |  |  |  |  |  |  | CC[C@H](C)[C@H](NC(=O)[C@H](CCCCN)NC(=O)[C@H](CCCCN)NC(=O)[C@H](Cc1c[nH]c2ccccc12)NC(=O)[C@@H](NC(=O)[C@@H](N)CC(N)=O)C(C)C)C(=O)N[C@@H](CC(C)C)C(=O)NCC(=O)N[C@@H](CCCCN)C(=O)N[C@H](C(=O)N[C@H](C(=O)N[C@@H](CCCCN)C(=O)N[C@H](C(=O)N[C@@H](C)C(=O)N[C@@H](CCCCN)C(N)=O)C(C)C)[C@@H](C)CC)[C@@H](C)CC [NVWKKILGKIIKVAK]
 |  |  |  | 2 (≈ 3.93 µg/mL) | 4 (≈ 7.85 µg/mL) | 2 (≈ 3.93 µg/mL) | 1 (≈ 1.96 µg/mL) | 0.5 (≈ 0.982 µg/mL) | 0.5 (≈ 0.982 µg/mL) |  |  | CC(C)C[C@H](NC(=O)[C@H](Cc1ccccc1)NC(=O)[C@H](CCCCN)NC(=O)[C@H](Cc1c[nH]c2ccccc12)NC(=O)[C@H](Cc1c[nH]c2ccccc12)NC(=O)[C@H](Cc1c[nH]c2ccccc12)NC(=O)[C@H](CCCCN)NC(=O)[C@H](Cc1ccccc1)NC(=O)[C@H](CCCN=C(N)N)NC(=O)[C@H](CCCN=C(N)N)NC(=O)[C@@H](N)C(C)C)C(=O)N[C@@H](CCCN=C(N)N)C(=O)N[C@@H](CCCN=C(N)N)C(N)=O [VRRFKWWWKFLRR]
4.3 (≈ 7.53 µg/mL) | 0.7 (≈ 1.23 µg/mL) | 0.7 (≈ 1.23 µg/mL) | 22.5 (≈ 39.4 µg/mL) |  |  |  |  |  |  |  |  | CC[C@H](C)[C@H](NC(=O)[C@H](CCCCN)NC(=O)[C@H](CCCCN)NC(=O)[C@H](Cc1c[nH]c2ccccc12)NC(=O)[C@H](CC(N)=O)NC(=O)[C@@H](N)C(C)C)C(=O)N[C@@H](CC(C)C)C(=O)N[C@@H](C)C(=O)N[C@@H](CCCCN)C(=O)N[C@H](C(=O)N[C@H](C(=O)N[C@@H](CCCCN)C(=O)N[C@H](C(=O)N[C@@H](C)C(=O)N[C@@H](CCCCN)C(N)=O)C(C)C)[C@@H](C)CC)[C@@H](C)CC [VNWKKILAKIIKVAK]
 | ≥ 100 | ≥ 100 |  |  |  |  |  |  |  |  |  | CSCC[C@H](NC(=O)[C@H](Cc1cnc[nH]1)NC(=O)[C@H](C)NC(=O)[C@H](CCSC)NC(=O)[C@@H](NC(=O)[C@@H](N)CCCCN)C(C)C)C(=O)N[C@@H](CCCCN)C(N)=O [KVMAHMK]
 |  |  |  |  |  |  |  |  |  | ≥ 125 | 62 (≈ 104 µg/mL) | CC[C@H](C)[C@H](NC(=O)[C@H](CO)NC(=O)[C@H](C)NC(=O)[C@@H](NC(=O)[C@H](CCCCN)NC(=O)[C@H](CCCCN)NC(=O)[C@@H](N)Cc1c[nH]c2ccccc12)[C@@H](C)CC)C(=O)NCC(=O)N[C@@H](CCCCN)C(=O)N[C@@H](CCC(=O)O)C(=O)N[C@H](C(=O)N[C@@H](CC(C)C)C(=O)N[C@@H](CCCCN)C(=O)N[C@@H](C)C(=O)N[C@@H](CC(C)C)C(N)=O)C(C)C [WKKIASIGKEVLKAL]
